Measured values taken from patent US10259808B2 (Genentech, Inc., priority 2015, dated 2019).

Biological target: T1, RORc ligand binding domain (Homo sapiens, UniProt P51449)
T1 sequence (P51449 269-508 limits assumed): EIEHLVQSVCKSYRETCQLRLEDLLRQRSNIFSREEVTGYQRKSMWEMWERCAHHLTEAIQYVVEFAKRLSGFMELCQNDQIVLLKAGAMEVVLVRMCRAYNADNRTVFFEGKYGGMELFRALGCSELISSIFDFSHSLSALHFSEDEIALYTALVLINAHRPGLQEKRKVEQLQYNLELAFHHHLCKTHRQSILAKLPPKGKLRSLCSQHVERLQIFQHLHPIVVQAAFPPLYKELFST
Assay: In vitro RORc ligand binding assay (25-[3H]hydroxycholesterol displacement)

Row | Structure (SMILES) | IC50
1 | C[C@H]1CC[C@H](c2ccccc2)S(=O)(=O)N1Cc1cc(F)c(C2(C(=O)N3CC[C@@H](O)C3)CCOCC2)cc1F [Example 32, [4-[2,5-difluoro-4-[[(3S,6R)-3-methyl-1,1-dioxo-6-phenyl-thiazinan-2-yl]methyl]phenyl]tetrahydropyran-4-yl]-[(3R)-3-hydroxypyrrolidin-1-yl]methanone] | 79 nM
2 | C[C@H]1CC[C@H](c2ccccc2)S(=O)(=O)N1Cc1cc(F)c(C2(C(=O)NCc3ccnn3C)CCOCC2)cc1F [Example 33, 4-[2,5-difluoro-4-[[(3S,6R)-3-methyl-1,1-dioxo-6-phenyl-thiazinan-2-yl]methyl]phenyl]-N-[(2-methylpyrazol-3-yl)methyl]tetrahydropyran-4-carboxamide] | 23.4 nM
3 | C[C@H]1CC[C@H](c2ccccc2)S(=O)(=O)N1Cc1cc(F)c(C2(C(=O)N3CC[C@H](O)C3)CCOCC2)cc1F [Example 34, [4-[2,5-difluoro-4-[[(3S,6R)-3-methyl-1,1-dioxo-6-phenyl-thiazinan-2-yl]methyl]phenyl]tetrahydropyran-4-yl]-[(3S)-3-hydroxypyrrolidin-1-yl]methanone] | 98.5 nM
4 | C[C@H]1CC[C@H](c2ccccc2)S(=O)(=O)N1Cc1cc(F)c(C2(C(=O)n3ccc(N)n3)CCOCC2)cc1F [Example 35, (3-aminopyrazol-1-yl)-[4-[2,5-difluoro-4-[[(3S,6R)-3-methyl-1,1-dioxo-6-phenyl-thiazinan-2-yl]methyl]phenyl]tetrahydropyran-4-yl]methanone] | 10 nM
5 | C[C@H]1CC[C@H](c2ccccc2)S(=O)(=O)N1Cc1cc(F)c(C2(C(=O)N3CCOCC3)CCOCC2)cc1F [Example 37, [4-[2,5-difluoro-4-[[(3S,6R)-3-methyl-1,1-dioxo-6-phenyl-thiazinan-2-yl]methyl]phenyl]tetrahydropyran-4-yl]-morpholino-methanone] | 106 nM
6 | Cc1ccn(C(=O)C2(c3cc(F)c(CN4[C@@H](C)CC[C@H](c5ccccc5)S4(=O)=O)cc3F)CCOCC2)n1 [Example 38, [4-[2,5-difluoro-4-[[(3S,6R)-3-methyl-1,1-dioxo-6-phenyl-thiazinan-2-yl]methyl]phenyl]tetrahydropyran-4-yl]-(3-methylpyrazol-1-yl)methanone] | 35 nM
7 | C[C@H]1CC[C@H](c2ccccc2)S(=O)(=O)N1Cc1cc(F)c(C2(C(=O)n3cccn3)CCOCC2)cc1F [Example 39, [4-[2,5-difluoro-4-[[(3S,6R)-3-methyl-1,1-dioxo-6-phenyl-thiazinan-2-yl]methyl]phenyl]tetrahydropyran-4-yl]-pyrazol-1-yl-methanone] | 27.3 nM
8 | C[C@H]1CC[C@H](c2ccccc2)S(=O)(=O)N1Cc1ccc(C2(Cn3cnnc3)CCOCC2)cc1F [Example 40, (3S,6R)-2-[[2-fluoro-4-[4-(1,2,4-triazol-4-ylmethyl)tetrahydropyran-4-yl]phenyl]methyl]-3-methyl-6-phenyl-thiazinane 1,1-dioxide] | 118 nM
9 | Cc1nnc(NCC2(c3ccc(CN4[C@@H](C)CC[C@H](c5ccccc5)S4(=O)=O)c(F)c3)CCOCC2)o1 [Example 41, N-[[4-[3-fluoro-4-[[(3S,6R)-3-methyl-1,1-dioxo-6-phenyl-thiazinan-2-yl]methyl]phenyl]tetrahydropyran-4-yl]methyl]-5-methyl-1,3,4-oxadiazol-2-amine] | 41.8 nM
10 | C[C@H]1CC[C@H](c2ccccc2)S(=O)(=O)N1Cc1ccc(C2(c3nnco3)CCOCC2)cc1F [Example 42, (3S,6R)-2-[[2-fluoro-4-[4-(1,3,4-oxadiazol-2-yl)tetrahydropyran-4-yl]phenyl]methyl]-3-methyl-6-phenyl-thiazinane 1,1-dioxide] | 54.6 nM
11 | Cc1nnc(C2(c3ccc(CN4[C@@H](C)CC[C@H](c5ccccc5)S4(=O)=O)c(F)c3)CCOCC2)o1 [Example 43, (3S,6R)-2-[[2-fluoro-4-[4-(5-methyl-1,3,4-oxadiazol-2-yl)tetrahydropyran-4-yl]phenyl]methyl]-3-methyl-6-phenyl-thiazinane 1,1-dioxide] | 142 nM
12 | C[C@H]1CC[C@H](c2ccccc2)S(=O)(=O)N1Cc1ccc(C2(c3nnc(CO)o3)CCOCC2)cc1F [Example 44, [5-[4-[3-fluoro-4-[[(3S,6R)-3-methyl-1,1-dioxo-6-phenyl-thiazinan-2-yl]methyl]phenyl]tetrahydropyran-4-yl]-1,3,4-oxadiazol-2-yl]methanol] | 102 nM
13 | C[C@H]1CC[C@H](c2ccccc2)S(=O)(=O)N1Cc1ccc(C2(n3cnnc3)CCOCC2)cc1F [Example 45, (3S,6R)-2-[[2-fluoro-4-[4-(1,2,4-triazol-4-yl)tetrahydropyran-4-yl]phenyl]methyl]-3-methyl-6-phenyl-thiazinane 1,1-dioxide] | 87.7 nM
14 | C[C@H]1CC[C@H](c2ccccc2)S(=O)(=O)N1Cc1ccc(C2(c3nnc[nH]3)CCOCC2)cc1F [Example 46, (3S,6R)-2-[[2-fluoro-4-[4-(4H-1,2,4-triazol-3-yl)tetrahydropyran-4-yl]phenyl]methyl]-3-methyl-6-phenyl-thiazinane 1,1-dioxide] | 26.6 nM
15 | Cc1nnc(C2(c3ccc(CN4[C@@H](C)CC[C@H](c5ccccc5)S4(=O)=O)c(F)c3)CCOCC2)[nH]1 [Example 47, (3S,6R)-2-[[2-fluoro-4-[4-(5-methyl-4H-1,2,4-triazol-3-yl)tetrahydropyran-4-yl]phenyl]methyl]-3-methyl-6-phenyl-thiazinane 1,1-dioxide] | 114 nM
16 | Cc1nnc(C2(c3cc(F)c(CN4[C@@H](C)CC[C@H](c5ccccc5)S4(=O)=O)cc3F)CCOCC2)[nH]1 [Example 48, (3S,6R)-2-[[2,5-difluoro-4-[4-(5-methyl-4H-1,2,4-triazol-3-yl)tetrahydropyran-4-yl]phenyl]methyl]-3-methyl-6-phenyl-thiazinane 1,1-dioxide] | 21.6 nM
17 | Cc1nnc(C2(c3cc(F)c(CN4[C@@H](C)CC[C@H](c5ccccc5)S4(=O)=O)cc3F)CC2)[nH]1 [Example 49, (3S,6R)-2-[[2,5-difluoro-4-[1-(5-methyl-4H-1,2,4-triazol-3-yl)cyclopropyl]phenyl]methyl]-3-methyl-6-phenyl-thiazinane 1,1-dioxide] | 40.4 nM
18 | C[C@H]1CC[C@H](c2ccccc2)S(=O)(=O)N1Cc1cc(F)c(C2(c3nnc[nH]3)CCOCC2)cc1F [Example 50, (3S,6R)-2-[[2,5-difluoro-4-[4-(4H-1,2,4-triazol-3-yl)tetrahydropyran-4-yl]phenyl]methyl]-3-methyl-6-phenyl-thiazinane 1,1-dioxide] | 28.6 nM
19 | CCOC(=O)Cn1cnc(C2(c3cc(F)c(CN4[C@@H](C)CC[C@H](c5ccccc5)S4(=O)=O)cc3F)CCOCC2)n1 [Example 52, ethyl 2-[3-[4-[2,5-difluoro-4-[[(3S,6R)-3-methyl-1,1-dioxo-6-phenyl-thiazinan-2-yl]methyl]phenyl]tetrahydropyran-4-yl]-1,2,4-triazol-1-yl]acetate] | 71 nM
20 | C[C@H]1CC[C@H](c2ccccc2)S(=O)(=O)N1Cc1cc(F)c(C2(c3ncn(CC(N)=O)n3)CCOCC2)cc1F [Example 53, 2-[3-[4-[2,5-difluoro-4-[[(3S,6R)-3-methyl-1,1-dioxo-6-phenyl-thiazinan-2-yl]methyl]phenyl]tetrahydropyran-4-yl]-1,2,4-triazol-1-yl]acetamide] | 103 nM
21 | C[C@H]1CC[C@H](c2ccccc2)S(=O)(=O)N1Cc1cc(F)c(C2(c3ncn(CCO)n3)CCOCC2)cc1F [Example 54, 2-[3-[4-[2,5-difluoro-4-[[(3S,6R)-3-methyl-1,1-dioxo-6-phenyl-thiazinan-2-yl]methyl]phenyl]tetrahydropyran-4-yl]-1,2,4-triazol-1-yl]ethanol] | 57 nM
22 | C[C@H]1CC[C@H](c2ccccc2)S(=O)(=O)N1Cc1ccc(C2(NCc3ncnn3C)CCOCC2)cc1F [Example 55, 4-[3-fluoro-4-[[(3S,6R)-3-methyl-1,1-dioxo-6-phenyl-thiazinan-2-yl]methyl]phenyl]-N-[(2-methyl-1,2,4-triazol-3-yl)methyl]tetrahydropyran-4-amine] | 10.7 nM
23 | C[C@H]1CC[C@H](c2ccccc2)S(=O)(=O)N1Cc1ccc(C2(OCc3nnc[nH]3)CCOCC2)cc1F [Example 56, (3S,6R)-2-[[2-fluoro-4-[4-(4H-1,2,4-triazol-3-ylmethoxy)tetrahydropyran-4-yl]phenyl]methyl]-3-methyl-6-phenyl-thiazinane 1,1-dioxide] | 7.2 nM
24 | C[C@H]1CC[C@H](c2ccccc2)S(=O)(=O)N1Cc1cc(F)c(C2(c3nnc(CO)o3)CCOCC2)cc1F [Example 57, [5-[4-[2,5-difluoro-4-[[(3S,6R)-3-methyl-1,1-dioxo-6-phenyl-thiazinan-2-yl]methyl]phenyl]tetrahydropyran-4-yl]-1,3,4-oxadiazol-2-yl]methanol] | 28.2 nM
25 | C[C@H]1CC[C@H](c2ccccc2)S(=O)(=O)N1Cc1cc(F)c(C2(c3n[nH]c(=O)o3)CCOCC2)cc1F [Example 58, 5-[4-[2,5-difluoro-4-[[(3S,6R)-3-methyl-1,1-dioxo-6-phenyl-thiazinan-2-yl]methyl]phenyl]tetrahydropyran-4-yl]-3H-1,3,4-oxadiazol-2-one] | 6.6 nM
26 | C[C@H]1CC[C@H](c2ccccc2)S(=O)(=O)N1Cc1ccc(C2(OCc3nnc[nH]3)COC2)cc1F [Example 59, (3S,6R)-2-[[2-fluoro-4-[3-(4H-1,2,4-triazol-3-ylmethoxy)oxetan-3-yl]phenyl]methyl]-3-methyl-6-phenyl-thiazinane 1,1-dioxide] | 23.2 nM
27 | CCOC(=O)c1nnc(C2(c3cc(F)c(CN4[C@@H](C)CC[C@H](c5ccccc5)S4(=O)=O)cc3F)CCOCC2)o1 [Example 60, ethyl 5-[4-[2,5-difluoro-4-[[(3S,6R)-3-methyl-1,1-dioxo-6-phenyl-thiazinan-2-yl]methyl]phenyl]tetrahydropyran-4-yl]-1,3,4-oxadiazole-2-carboxylate] | 4.2 nM
